Results published in patent EP0991637B1, “BENZO(5,6)CYCLOHEPTA(1,2-B)PYRIDINE DERIVATIVES AS FARNESYL PROTEIN TRANSFERASE INHIBITORS” (SCHERING CORPORATION, priority 1997, dated 1998).

test system: COS Cell; test: COS Cell IC50 (Cell-Based Assay), procedure of WO 95/10516; settings: range stated for the whole group of compounds
Description: FPT IC50 (inhibition of farnesyl protein transferase, in vitro enzyme assay) and COS Cell IC50 (Cell-Based Assay) were determined following the assay procedures described in WO 95/10516, published April 20, 1995. GGPT IC50 (inhibition of geranylgeranyl protein transferase, in vitro enzyme assay), Cell Mat Assay, and anti-tumor activity (in vivo anti-tumor studies) could be determined by the assay procedures described in WO 95/10516. The disclosure of WO 95/10516 is incorporated herein by reference thereto.

Row | Structure (SMILES) | IC50
1 | O=C(O)Cc1ccc(CC(=O)N2CCC([C@H]3c4ncc(Br)cc4CCc4cc(Cl)cc(Br)c43)CC2)cc1 [Example 3] | 0.01 to 0.5 µM
2 | O=C(O)C[C@H]1CC[C@H](C(=O)N2CCC([C@H]3c4ncc(Br)cc4CCc4cc(Cl)cc(Br)c43)CC2)CC1 [Example 36] | 0.01 to 0.5 µM
3 | NC(=O)Cc1ccc(CC(=O)N2CCC([C@H]3c4ncc(Br)cc4CCc4cc(Cl)cc(Br)c43)CC2)cc1 [Example 15] | 0.01 to 0.5 µM
4 | O=C(O)C[C@H]1CC[C@@H](C(=O)N2CCC([C@H]3c4ncc(Br)cc4CCc4cc(Cl)cc(Br)c43)CC2)CC1 [Example 35] | 0.01 to 0.5 µM
5 | COC(=O)CNC(=O)Cc1cccc(CC(=O)N2CCC([C@H]3c4ncc(Br)cc4CCc4cc(Cl)cc(Br)c43)CC2)c1 [Example 17] | 0.01 to 0.5 µM
6 | NC(=O)C1CCC(CC(=O)N2CCC([C@H]3c4ncc(Br)cc4CCc4cc(Cl)cc(Br)c43)CC2)CC1 (stereo partly shown) [Example 23] | 0.01 to 0.5 µM
7 | NC(=O)CC1CCC(CC(=O)N2CCC([C@H]3c4ncc(Br)cc4CCc4cc(Cl)cc(Br)c43)CC2)CC1 (stereo partly shown) [Example 22] | 0.01 to 0.5 µM
8 | O=C(O)C=C1CCC(=CC(=O)N2CCC([C@H]3c4ncc(Br)cc4CCc4cc(Cl)cc(Br)c43)CC2)CC1 [Example 14] | 0.01 to 0.5 µM
9 | O=C(O)C1CCC(CC(=O)N2CCC([C@H]3c4ncc(Br)cc4CCc4cc(Cl)cc(Br)c43)CC2)CC1 (stereo partly shown) [Example 12] | 0.01 to 0.5 µM
10 | NC(=O)[C@H]1C[C@@H]1C(=O)N1CCC([C@H]2c3ncc(Br)cc3CCc3cc(Cl)cc(Br)c32)CC1 [Compound 55.0, Trans-2(S)-[[4-(3,10-dibromo-8-chloro-6,11-dihydro-5H-benzo[5,6]cyclohepta[1,2-b]pyridin-11(R)-yl)-1-piperidinyl]carbonyl]-(S)-cyclopropanecarboxamide] | 0.01 to 0.5 µM
11 | COC(=O)Cc1ccc(CC(=O)N2CCC([C@H]3c4ncc(Br)cc4CCc4cc(Cl)cc(Br)c43)CC2)cc1 [Example 34] | 0.01 to 0.5 µM
12 | CCOC(=O)C1CCC(CC(=O)N2CCC([C@H]3c4ncc(Br)cc4CCc4cc(Cl)cc(Br)c43)CC2)CC1 (stereo partly shown) [Example 8] | 0.01 to 0.5 µM
13 | O=C(O)CC1CCC(CC(=O)N2CCC([C@H]3c4ncc(Br)cc4CCc4cc(Cl)cc(Br)c43)CC2)CC1 (stereo partly shown) [Example 13] | 0.01 to 0.5 µM
14 | NC(=O)Cc1cccc(CC(=O)N2CCC([C@H]3c4ncc(Br)cc4CCc4cc(Cl)cc(Br)c43)CC2)c1 [Example 16] | 0.01 to 0.5 µM
15 | COC(=O)CNC(=O)Cc1ccc(CC(=O)N2CCC([C@H]3c4ncc(Br)cc4CCc4cc(Cl)cc(Br)c43)CC2)cc1 [Example 18] | 0.01 to 0.5 µM
16 | CONC(=O)Cc1ccc(CC(=O)N2CCC([C@H]3c4ncc(Br)cc4CCc4cc(Cl)cc(Br)c43)CC2)cc1 [Example 19] | 0.01 to 0.5 µM
17 | O=C(O)Cc1cccc(CC(=O)N2CCC([C@H]3c4ncc(Br)cc4CCc4cc(Cl)cc(Br)c43)CC2)c1 [Example 4] | 0.01 to 0.5 µM

test system: Human tumor cells; test: Soft Agar Assay (anchorage-independent growth, colony outgrowth, MTT staining); format: cell-based; settings: 0.3% agarose over 0.6% agarose, 10-16 days at 37°C under 5% CO2
Description: Anchorage-independent growth is a characteristic of tumorigenic cell lines. Human tumor cells are suspended in growth medium containing 0.3% agarose and an indicated concentration of a farnesyl transferase inhibitor. The solution is overlayed onto growth medium solidified with 0.6% agarose containing the same concentration of farnesyl transferase inhibitor as the top layer. After the top layer is solidified, plates are incubated for 10-16 days at 37°C under 5% CO2 to allow colony outgrowth. After incubation, the colonies are stained by overlaying the agar with a solution of MTT (3-[4,5-dimethyl-thiazol-2-yl]-2,5-diphenyltetrazolium bromide, Thiazolyl blue) (1 mg/mL in PBS). Colonies can be counted and the IC50's can be determined.

Row | Structure (SMILES) | IC50
18 | O=C(O)C=C1CCC(=CC(=O)N2CCC([C@H]3c4ncc(Br)cc4CCc4cc(Cl)cc(Br)c43)CC2)CC1 [Example 14] | > 0.5 µM
19 | CCOC(=O)C1CCC(CC(=O)N2CCC([C@H]3c4ncc(Br)cc4CCc4cc(Cl)cc(Br)c43)CC2)CC1 (stereo partly shown) [Example 8] | > 0.5 µM
